Assay results from patent publication US4075336A, “Thiazines and method” (Kanto Ishiseiyaku Co., Ltd., priority 1976, dated 1978).

Experiments:
Wister-strain rats = assay: Anti-inflammatory effect, carrageenan-induced edema; assay type: in vivo; conditions: for inhibitory percent: vs control
Protocol: (Carrageenen-induced edema)
Wister-strain rats (each group consisting of 5 animals) were subcutaneously given 0.1 ml of a 1% carrageenan suspension on their right paws. The volumes of the right paws were measured prior to the administration, and thereafter were measured with elapsed time. The inhibitory percent was calculated, in comparison with a control, on the basis of the volume of edema induced. The volume was estimated with reference to the volume before the carrageenan-injection. The test compounds were orally administered 1 hour before the carrageenan-injection. The same experiments were repeated twice. The mean values of the results in all 10 animals were compared with those of methiazinic acid.

rats = assay: Analgesic effect, Randall-Selitto method (pain threshold, carrageenan-inflamed paw); assay type: in vivo
Protocol: Using an analgesic effect measuring apparatus (made by Ugo Basile Co., Ltd.), pain thresholds in rats were measured as a function of elapsed time and compared with normal pain threshold values which had previously been determined. Each group consisted of 5 animals, which were subcutaneously given 0.1 ml of a 1% carrageenan suspension on their right paws. The test compounds were given orally, 1 hour before the carrageenan medication. The experiments were repeated twice under the same conditions. The mean values of the results obtained for 10 animals were compared with those of methiazinic acid.
The results obtained are shown in Table 1, wherein "OS" refers to oral administration.

dd strain mice [1] = assay: Acute toxicity, intraperitoneal (LD50, deaths); assay type: in vivo
Protocol: (§1) Animals [dd strain mice; 5 groups of males and 5 groups of females, each group consisting of 8 animals] were intraperitoneally given the compound of this invention in doses of 2000, 2400, 2880, 3456 and 5000 mg/kg. […] Based on this finding, it may be concluded that the value of LD50 is at least more than 5000 mg/kg.

[2] = Acute toxicity, intraperitoneal (LD50, deaths); assay type: in vivo; conditions: mouse, in vivo, ip; intraperitoneal, dd strain mice, males and females
Protocol: as §1

dd strain mice [3] = conditions: methiazinic acid; source of value not given; cited from earlier work
[4] = 50 mg/kg per os, inflammated paw
[5] = 100 mg/kg per os, inflammated paw

Work on `COc1ccc(C2NC(=O)c3ccccc3S2)cc1O` (centres unmarked) [Compound of this invention, 4-oxo-2-(3-hydroxy-4-methoxyphenyl)-2,3-dihydro-5,6-benzo-1,3-thiazine] yielded an edema percent (Wister-strain rats; 50 mg/kg per os, 1 hr.) of 29.3%, an inhibitory percent (Wister-strain rats; 50 mg/kg per os, 1 hr.) of 39.2% and an edema percent (Wister-strain rats; 50 mg/kg per os, 2 hrs.) of 43.1%. It also gave an inhibitory percent (Wister-strain rats; 50 mg/kg per os, 2 hrs.) of 32.6%, an edema percent (Wister-strain rats; 50 mg/kg per os, 3 hrs.) of 43.1% and an inhibitory percent (Wister-strain rats; 50 mg/kg per os, 3 hrs.) of 37.3%. It also gave an edema percent (Wister-strain rats; 50 mg/kg per os, 4 hrs.) of 42.4%, an inhibitory percent (Wister-strain rats; 50 mg/kg per os, 4 hrs.) of 32.1% and an edema percent (Wister-strain rats; 50 mg/kg per os, 5 hrs.) of 37.4%. The inhibitory percent (Wister-strain rats; 50 mg/kg per os, 5 hrs.) was 36.4%, the edema percent (Wister-strain rats; 100 mg/kg per os, 1 hr.) was 24.1% and the inhibitory percent (Wister-strain rats; 100 mg/kg per os, 1 hr.) was 42.1%. The edema percent (Wister-strain rats; 100 mg/kg per os, 2 hrs.) was 31.5%, the inhibitory percent (Wister-strain rats; 100 mg/kg per os, 2 hrs.) was 49.9% and the edema percent (Wister-strain rats; 100 mg/kg per os, 3 hrs.) was 34.6%. The inhibitory percent (Wister-strain rats; 100 mg/kg per os, 3 hrs.) was 50.4%, the edema percent (Wister-strain rats; 100 mg/kg per os, 4 hrs.) was 33.9% and the inhibitory percent (Wister-strain rats; 100 mg/kg per os, 4 hrs.) was 47.5%. The edema percent (Wister-strain rats; 100 mg/kg per os, 5 hrs.) was 35.5%, the inhibitory percent (Wister-strain rats; 100 mg/kg per os, 5 hrs.) was 39.1% and the “anti-inflammatory effect compared with methiazinic acid (in words)” value (Wister-strain rats; 50 and 100 mg/kg per os) was “very similar to that of methiazinic acid”. For the same compound, the “duration of anti-inflammatory effect (in words)” value (Wister-strain rats; 50 and 100 mg/kg per os) was “long duration effect, which was observed even after 5 hours”, the “anti-inflammatory effect 1 hour after administration (in words)” value (Wister-strain rats; 50 and 100 mg/kg per os, 1 hour) was “significant effect 1 hour after administration” and the Analgesic coefficient (rats; [4]) was 0.73. The “Pain threshold after 30 min.” value (rats; [4]) was 62.5 mm Hg, the “Pain threshold after 60 min.” value (rats; [4]) was 57.7 mm Hg and the “Pain threshold after 90 min.” value (rats; [4]) was 48.0 mm Hg. The “Pain threshold after 120 min.” value (rats; [4]) was 41.8 mm Hg, the “Pain threshold after 180 min.” value (rats; [4]) was 36.8 mm Hg and the “Pain threshold after 240 min.” value (rats; [4]) was 44.2 mm Hg. The “Pain threshold, before medication” value (rats; [4]) was 66.8 mm Hg, the Analgesic coefficient (rats; 50 mg/kg per os, normal paw) was 0.93 and the “Pain threshold after 30 min.” value (rats; 50 mg/kg per os, normal paw) was 66.7 mm Hg. The “Pain threshold after 60 min.” value (rats; 50 mg/kg per os, normal paw) was 66.0 mm Hg, the “Pain threshold after 90 min.” value (rats; 50 mg/kg per os, normal paw) was 64.0 mm Hg and the “Pain threshold after 120 min.” value (rats; 50 mg/kg per os, normal paw) was 61.7 mm Hg. For the same compound, the “Pain threshold after 180 min.” value (rats; 50 mg/kg per os, normal paw) was 57.3 mm Hg, the “Pain threshold after 240 min.” value (rats; 50 mg/kg per os, normal paw) was 60.8 mm Hg and the “Pain threshold, before medication” value (rats; 50 mg/kg per os, normal paw) was 67.3 mm Hg. For the same compound, the Analgesic coefficient (rats; [5]) was 0.82, the “Pain threshold after 30 min.” value (rats; [5]) was 66.7 mm Hg and the “Pain threshold after 60 min.” value (rats; [5]) was 63.7 mm Hg. For the same compound, the “Pain threshold after 90 min.” value (rats; [5]) was 57.2 mm Hg, the “Pain threshold after 120 min.” value (rats; [5]) was 49.0 mm Hg and the “Pain threshold after 180 min.” value (rats; [5]) was 43.3 mm Hg. The “Pain threshold after 240 min.” value (rats; [5]) was 43.2 mm Hg, the “Pain threshold, before medication” value (rats; [5]) was 65.6 mm Hg and the Analgesic coefficient (rats; 100 mg/kg per os, normal paw) was 0.96. The “Pain threshold after 30 min.” value (rats; 100 mg/kg per os, normal paw) was 65.0 mm Hg, the “Pain threshold after 60 min.” value (rats; 100 mg/kg per os, normal paw) was 65.7 mm Hg and the “Pain threshold after 90 min.” value (rats; 100 mg/kg per os, normal paw) was 65.2 mm Hg. For the same compound, the “Pain threshold after 120 min.” value (rats; 100 mg/kg per os, normal paw) was 62.5 mm Hg, the “Pain threshold after 180 min.” value (rats; 100 mg/kg per os, normal paw) was 61.0 mm Hg and the “Pain threshold after 240 min.” value (rats; 100 mg/kg per os, normal paw) was 61.2 mm Hg. For the same compound, the “Pain threshold, before medication” value (rats; 100 mg/kg per os, normal paw) was 66.0 mm Hg, the “analgesic effect (in words)” value (rats; 50 and 100 mg/kg, oral) was “clearly exerts analgesic effects” and the “duration and strength of analgesic effect compared with methiazinic acid (in words)” value (rats; 50 and 100 mg/kg, oral) was “about the same duration and strength of effect as methiazinic acid”. The “toxicity relative to that of methiazinic acid” value (dd strain mice [1]; from LD50 values) was “less than one/tenth”, the deaths (dd strain mice [1]; intraperitoneal, 2000, 2400, 2880, 3456 and 5000 mg/kg, male and female dd strain mice) was “no deaths were observed” and the LD50 [2] was greater than 5000 mg/kg.
Compound `CN1c2ccccc2Sc2ccc(CC(=O)O)cc21` [Methiazinic acid, α-(10-methyl-2-pheno-thiazinyl)-acetic acid, reference compound] has an edema percent (Wister-strain rats; 50 mg/kg per os, 1 hr.) of 38.8%, an inhibitory percent (Wister-strain rats; 50 mg/kg per os, 1 hr.) of 19.6% and an edema percent (Wister-strain rats; 50 mg/kg per os, 2 hrs.) of 47.7%. The inhibitory percent (Wister-strain rats; 50 mg/kg per os, 2 hrs.) was 25.5%, the edema percent (Wister-strain rats; 50 mg/kg per os, 3 hrs.) was 48.8% and the inhibitory percent (Wister-strain rats; 50 mg/kg per os, 3 hrs.) was 29.2%. It also gave an edema percent (Wister-strain rats; 50 mg/kg per os, 4 hrs.) of 46.7%, an inhibitory percent (Wister-strain rats; 50 mg/kg per os, 4 hrs.) of 25.2% and an edema percent (Wister-strain rats; 50 mg/kg per os, 5 hrs.) of 39.4%. It also gave an inhibitory percent (Wister-strain rats; 50 mg/kg per os, 5 hrs.) of 32.9%, an edema percent (Wister-strain rats; 100 mg/kg per os, 1 hr.) of 34.2% and an inhibitory percent (Wister-strain rats; 100 mg/kg per os, 1 hr.) of 17.7%. For the same compound, the edema percent (Wister-strain rats; 100 mg/kg per os, 2 hrs.) was 38.1%, the inhibitory percent (Wister-strain rats; 100 mg/kg per os, 2 hrs.) was 39.3% and the edema percent (Wister-strain rats; 100 mg/kg per os, 3 hrs.) was 40.1%. It also gave an inhibitory percent (Wister-strain rats; 100 mg/kg per os, 3 hrs.) of 42.4%, an edema percent (Wister-strain rats; 100 mg/kg per os, 4 hrs.) of 39.7% and an inhibitory percent (Wister-strain rats; 100 mg/kg per os, 4 hrs.) of 38.5%. For the same compound, the edema percent (Wister-strain rats; 100 mg/kg per os, 5 hrs.) was 36.0%, the inhibitory percent (Wister-strain rats; 100 mg/kg per os, 5 hrs.) was 38.3% and the LD50 (dd strain mice [3]) was “about 500 mg/kg”. The Analgesic coefficient (rats; [4]) was 0.74, the “Pain threshold after 30 min.” value (rats; [4]) was 62.7 mm Hg and the “Pain threshold after 60 min.” value (rats; [4]) was 57.7 mm Hg. The “Pain threshold after 90 min.” value (rats; [4]) was 48.9 mm Hg, the “Pain threshold after 120 min.” value (rats; [4]) was 43.5 mm Hg and the “Pain threshold after 180 min.” value (rats; [4]) was 39.0 mm Hg. For the same compound, the “Pain threshold after 240 min.” value (rats; [4]) was 44.5 mm Hg, the “Pain threshold, before medication” value (rats; [4]) was 66.8 mm Hg and the Analgesic coefficient (rats; 50 mg/kg per os, normal paw) was 0.94. The “Pain threshold after 30 min.” value (rats; 50 mg/kg per os, normal paw) was 66.2 mm Hg, the “Pain threshold after 60 min.” value (rats; 50 mg/kg per os, normal paw) was 65.3 mm Hg and the “Pain threshold after 90 min.” value (rats; 50 mg/kg per os, normal paw) was 63.8 mm Hg. For the same compound, the “Pain threshold after 120 min.” value (rats; 50 mg/kg per os, normal paw) was 62.0 mm Hg, the “Pain threshold after 180 min.” value (rats; 50 mg/kg per os, normal paw) was 59.7 mm Hg and the “Pain threshold after 240 min.” value (rats; 50 mg/kg per os, normal paw) was 61.3 mm Hg. For the same compound, the “Pain threshold, before medication” value (rats; 50 mg/kg per os, normal paw) was 67.2 mm Hg, the Analgesic coefficient (rats; [5]) was 0.83 and the “Pain threshold after 30 min.” value (rats; [5]) was 69.3 mm Hg. For the same compound, the “Pain threshold after 60 min.” value (rats; [5]) was 66.7 mm Hg, the “Pain threshold after 90 min.” value (rats; [5]) was 57.3 mm Hg and the “Pain threshold after 120 min.” value (rats; [5]) was 49.5 mm Hg. The “Pain threshold after 180 min.” value (rats; [5]) was 47.2 mm Hg, the “Pain threshold after 240 min.” value (rats; [5]) was 47.2 mm Hg and the “Pain threshold, before medication” value (rats; [5]) was 67.7 mm Hg. The Analgesic coefficient (rats; 100 mg/kg per os, normal paw) was 0.98, the “Pain threshold after 30 min.” value (rats; 100 mg/kg per os, normal paw) was 69.0 mm Hg and the “Pain threshold after 60 min.” value (rats; 100 mg/kg per os, normal paw) was 66.7 mm Hg. For the same compound, the “Pain threshold after 90 min.” value (rats; 100 mg/kg per os, normal paw) was 65.5 mm Hg, the “Pain threshold after 120 min.” value (rats; 100 mg/kg per os, normal paw) was 64.8 mm Hg and the “Pain threshold after 180 min.” value (rats; 100 mg/kg per os, normal paw) was 62.8 mm Hg. For the same compound, the “Pain threshold after 240 min.” value (rats; 100 mg/kg per os, normal paw) was 64.0 mm Hg and the “Pain threshold, before medication” value (rats; 100 mg/kg per os, normal paw) was 66.9 mm Hg.
